The values below are quoted from earlier work in patent publication US20070065542A1 (Board Of Regents, The University Of Texas System, priority 2005, published 2007).

Where two headings read alike, the source gives them in different places.

The conditions of data set [1]: soluble complexes of calcium, from literature.
For data set [2] the following is noted: dissociation constant.
For data set [3] the following is noted: soluble iron complexes and reference complexes, known values.
The conditions of data set [4]: very high concentration.

Regarding `O=C([O-])CC(O)C(=O)[O-].[Ca+2]` (stereo not drawn) [CaMal], the Stability constant in data set [1] is given as 2.19.

In the case of `O=C(O)O` [Carbonate anion], in data set [2], the pK1 is on record as 6.1 and the pK2 is 10.3.

In the case of `O=C1O[C@H]([C@@H](O)CO)C(O)=C1O.[Fe+2]` [Ferrous monohydrogen ascorbate], the Stability constant in data set [3] is reported as 1.30.

Turning to `CC(O)C(=O)O` (stereo not drawn) [Lactic Acid], the pK1 in data set [2] is 3.87.

On to `[Cl][Fe]([Cl])[Cl]` [ferric chloride], for which the “pH at which precipitation of iron occurred” value in data set [4] is 3-4.
